From the NIST ThermoML archive (doi:10.1016/j.tca.2018.05.009)
Values joined by “and” are separate entries in the source; they are usually repeats but may differ in a detail not shown here. Equal entries are not always repeated. Numbers after ± are expanded uncertainties.

Details: Liquid, Transpiration method

CC(=O)C(=O)O [2-oxopropanoic acid]
vapor or sublimation pressure (308.2 K): 0.2899 ± 0.018 kPa | vapor or sublimation pressure (313.3 K): 0.3753 ± 0.023 kPa and 0.3771 ± 0.023 kPa | vapor or sublimation pressure (315.9 K): 0.434 ± 0.027 kPa | vapor or sublimation pressure (316.8 K): 0.45 ± 0.028 kPa | vapor or sublimation pressure (318.3 K): 0.509 ± 0.032 kPa | vapor or sublimation pressure (320.9 K): 0.599 ± 0.038 kPa and 0.597 ± 0.037 kPa | vapor or sublimation pressure (325.8 K): 0.798 ± 0.05 kPa | vapor or sublimation pressure (330.8 K): 1.092 ± 0.068 kPa | vapor or sublimation pressure (333.2 K): 1.274 ± 0.08 kPa | vapor or sublimation pressure (336.4 K): 1.519 ± 0.094 kPa

COC(=O)C(C)=O [methyl 2-oxopropanoate]
vapor or sublimation pressure (279.4 K): 0.177 ± 0.011 kPa and 0.1749 ± 0.011 kPa | vapor or sublimation pressure (280.9 K): 0.1942 ± 0.012 kPa | vapor or sublimation pressure (282.4 K): 0.2279 ± 0.015 kPa | vapor or sublimation pressure (283.8 K): 0.2536 ± 0.016 kPa | vapor or sublimation pressure (286.2 K): 0.2982 ± 0.019 kPa and 0.293 ± 0.018 kPa | vapor or sublimation pressure (287 K): 0.3042 ± 0.019 kPa | vapor or sublimation pressure (289.2 K): 0.3569 ± 0.023 kPa | vapor or sublimation pressure (291 K): 0.426 ± 0.027 kPa | vapor or sublimation pressure (294.9 K): 0.527 ± 0.033 kPa | vapor or sublimation pressure (298.9 K): 0.706 ± 0.045 kPa | vapor or sublimation pressure (302.9 K): 0.919 ± 0.058 kPa | vapor or sublimation pressure (307.8 K): 1.227 ± 0.077 kPa
